From the NIST ThermoML archive (doi:10.1021/je600573w)

Assays:
[1] = molar heat capacity at constant pressure; details: 101.33 kPa, Liquid, Small sample (50 mg) DSC
[2] = 101.33 kPa, Liquid, Vibrating tube method

Clc1ccc(Cl)c(Cl)c1Cl [1,2,3,4-tetrachlorobenzene]
[1]
Details	molar heat capacity at constant pressure [J/K/mol]
327.15 K	225.17
329.15 K	225.49
331.15 K	225.82
333.15 K	226.14
335.15 K	226.47
337.15 K	226.8
339.15 K	227.13
341.15 K	227.46
343.15 K	227.8
345.15 K	228.13
347.15 K	228.47
349.15 K	228.81
351.15 K	229.16
353.15 K	229.5

Clc1cccc(Cl)c1Cl [1,2,3-trichlorobenzene]
[1]
Details	molar heat capacity at constant pressure [J/K/mol]
327.15 K	201.44
329.15 K	201.8
331.15 K	202.16
333.15 K	202.52
335.15 K	202.88
337.15 K	203.25
339.15 K	203.62
341.15 K	204
343.15 K	204.38
345.15 K	204.75
347.15 K	205.14
349.15 K	205.52
351.15 K	205.91
353.15 K	206.3

Clc1ccc(Cl)c(Cl)c1 [1,2,4-trichlorobenzene]
Details	mass density [kg/m3]	molar heat capacity at constant pressure [J/K/mol]
[1], 293.15 K	–	194.25
[1], 295.15 K	–	194.57
[1], 297.15 K	–	194.9
[1], 299.15 K	–	195.23
[1], 301.15 K	–	195.57
[1], 303.15 K	–	195.92
[1], 305.15 K	–	196.27
[1], 307.15 K	–	196.63
[1], 309.15 K	–	196.99
[1], 311.15 K	–	197.35
[1], 313.15 K	–	197.72
[1], 315.15 K	–	198.09
[1], 317.15 K	–	198.47
[1], 319.15 K	–	198.85
[1], 321.15 K	–	199.23
[1], 323.15 K	–	199.61
[1], 325.15 K	–	200
[1], 327.15 K	–	200.38
[1], 329.15 K	–	200.77
[1], 331.15 K	–	201.16
[1], 333.15 K	–	201.55
[1], 335.15 K	–	201.93
[1], 337.15 K	–	202.32
[1], 339.15 K	–	202.71
[1], 341.15 K	–	203.09
[1], 343.15 K	–	203.47
[1], 345.15 K	–	203.85
[1], 347.15 K	–	204.23
[1], 349.15 K	–	204.61
[1], 351.15 K	–	204.98
[1], 353.15 K	–	205.35
[2], 288.15 K	1460.65	–
[2], 298.15 K	1448.67	–
[2], 308.15 K	1436.73	–
[2], 318.15 K	1424.8	–
[2], 328.15 K	1412.89	–
[2], 338.15 K	1400.98	–

Brc1ccccc1Br [1,2-dibromobenzene]
Details	mass density [kg/m3]	molar heat capacity at constant pressure [J/K/mol]
[1], 283.15 K	–	177.44
[1], 285.15 K	–	177.83
[1], 287.15 K	–	178.12
[1], 289.15 K	–	178.43
[1], 291.15 K	–	178.75
[1], 293.15 K	–	179.08
[1], 295.15 K	–	179.42
[1], 297.15 K	–	179.76
[1], 299.15 K	–	180.12
[1], 301.15 K	–	180.48
[1], 303.15 K	–	180.85
[1], 305.15 K	–	181.22
[1], 307.15 K	–	181.6
[1], 309.15 K	–	181.99
[1], 311.15 K	–	182.38
[1], 313.15 K	–	182.77
[1], 315.15 K	–	183.17
[1], 317.15 K	–	183.57
[1], 319.15 K	–	183.97
[1], 321.15 K	–	184.38
[1], 323.15 K	–	184.79
[1], 325.15 K	–	185.19
[1], 327.15 K	–	185.6
[1], 329.15 K	–	186.01
[1], 331.15 K	–	186.42
[1], 333.15 K	–	186.82
[1], 335.15 K	–	187.23
[1], 337.15 K	–	187.63
[1], 339.15 K	–	188.03
[1], 341.15 K	–	188.42
[1], 343.15 K	–	188.82
[1], 345.15 K	–	189.2
[1], 347.15 K	–	189.58
[1], 349.15 K	–	189.96
[1], 351.15 K	–	190.33
[1], 353.15 K	–	190.69
[2], 288.15 K	1987.92	–
[2], 298.15 K	1972.75	–
[2], 308.15 K	1957.62	–
[2], 318.15 K	1942.51	–
[2], 328.15 K	1927.42	–
[2], 338.15 K	1912.34	–

Clc1ccccc1Cl [1,2-dichlorobenzene]
Details	mass density [kg/m3]	molar heat capacity at constant pressure [J/K/mol]
[1], 283.15 K	–	167.68
[1], 285.15 K	–	168.06
[1], 287.15 K	–	168.44
[1], 289.15 K	–	168.83
[1], 291.15 K	–	169.23
[1], 293.15 K	–	169.64
[1], 295.15 K	–	170.05
[1], 297.15 K	–	170.47
[1], 299.15 K	–	170.89
[1], 301.15 K	–	171.32
[1], 303.15 K	–	171.76
[1], 305.15 K	–	172.2
[1], 307.15 K	–	172.64
[1], 309.15 K	–	173.09
[1], 311.15 K	–	173.54
[1], 313.15 K	–	174
[1], 315.15 K	–	174.46
[1], 317.15 K	–	174.92
[1], 319.15 K	–	175.38
[1], 321.15 K	–	175.85
[1], 323.15 K	–	176.32
[1], 325.15 K	–	176.79
[1], 327.15 K	–	177.26
[1], 329.15 K	–	177.73
[1], 331.15 K	–	178.2
[1], 333.15 K	–	178.67
[1], 335.15 K	–	179.14
[1], 337.15 K	–	179.61
[1], 339.15 K	–	180.07
[1], 341.15 K	–	180.54
[1], 343.15 K	–	181
[1], 345.15 K	–	181.47
[1], 347.15 K	–	181.92
[1], 349.15 K	–	182.38
[1], 351.15 K	–	182.83
[1], 353.15 K	–	183.28
[2], 288.15 K	1311.76	–
[2], 298.15 K	1300.61	–
[2], 308.15 K	1289.45	–
[2], 318.15 K	1278.29	–
[2], 328.15 K	1267.09	–
[2], 338.15 K	1255.87	–

Brc1cccc(Br)c1 [1,3-dibromobenzene]
Details	mass density [kg/m3]	molar heat capacity at constant pressure [J/K/mol]
[1], 283.15 K	–	176.01
[1], 285.15 K	–	176.4
[1], 287.15 K	–	176.71
[1], 289.15 K	–	177.04
[1], 291.15 K	–	177.38
[1], 293.15 K	–	177.72
[1], 295.15 K	–	178.08
[1], 297.15 K	–	178.44
[1], 299.15 K	–	178.81
[1], 301.15 K	–	179.19
[1], 303.15 K	–	179.58
[1], 305.15 K	–	179.97
[1], 307.15 K	–	180.37
[1], 309.15 K	–	180.78
[1], 311.15 K	–	181.19
[1], 313.15 K	–	181.6
[1], 315.15 K	–	182.01
[1], 317.15 K	–	182.43
[1], 319.15 K	–	182.85
[1], 321.15 K	–	183.28
[1], 323.15 K	–	183.7
[1], 325.15 K	–	184.13
[1], 327.15 K	–	184.55
[1], 329.15 K	–	184.98
[1], 331.15 K	–	185.4
[1], 333.15 K	–	185.83
[1], 335.15 K	–	186.25
[1], 337.15 K	–	186.67
[1], 339.15 K	–	187.08
[1], 341.15 K	–	187.49
[1], 343.15 K	–	187.9
[1], 345.15 K	–	188.3
[1], 347.15 K	–	188.7
[1], 349.15 K	–	189.09
[1], 351.15 K	–	189.47
[1], 353.15 K	–	189.85
[2], 288.15 K	1964.14	–
[2], 298.15 K	1948.87	–
[2], 308.15 K	1933.61	–
[2], 318.15 K	1918.3	–
[2], 328.15 K	1903.13	–
[2], 338.15 K	1887.88	–

Clc1cccc(Cl)c1 [1,3-dichlorobenzene]
Details	mass density [kg/m3]	molar heat capacity at constant pressure [J/K/mol]
[1], 283.15 K	–	167.15
[1], 285.15 K	–	167.54
[1], 287.15 K	–	167.93
[1], 289.15 K	–	168.32
[1], 291.15 K	–	168.72
[1], 293.15 K	–	169.13
[1], 295.15 K	–	169.55
[1], 297.15 K	–	169.97
[1], 299.15 K	–	170.39
[1], 301.15 K	–	170.82
[1], 303.15 K	–	171.25
[1], 305.15 K	–	171.69
[1], 307.15 K	–	172.14
[1], 309.15 K	–	172.58
[1], 311.15 K	–	173.04
[1], 313.15 K	–	173.49
[1], 315.15 K	–	173.95
[1], 317.15 K	–	174.41
[1], 319.15 K	–	174.88
[1], 321.15 K	–	175.35
[1], 323.15 K	–	175.83
[1], 325.15 K	–	176.3
[1], 327.15 K	–	176.78
[1], 329.15 K	–	177.26
[1], 331.15 K	–	177.75
[1], 333.15 K	–	178.24
[1], 335.15 K	–	178.73
[1], 337.15 K	–	179.22
[1], 339.15 K	–	179.71
[1], 341.15 K	–	180.2
[1], 343.15 K	–	180.7
[1], 345.15 K	–	181.2
[1], 347.15 K	–	181.7
[1], 349.15 K	–	182.2
[1], 351.15 K	–	182.7
[1], 353.15 K	–	183.2
[2], 288.15 K	1294.08	–
[2], 298.15 K	1282.79	–
[2], 308.15 K	1271.49	–
[2], 318.15 K	1260.17	–
[2], 328.15 K	1248.82	–
[2], 338.15 K	1237.42	–

Clc1ccc(Cl)cc1 [1,4-dichlorobenzene]
[1]
Details	molar heat capacity at constant pressure [J/K/mol]
327.15 K	177.09
329.15 K	177.53
331.15 K	177.98
333.15 K	178.43
335.15 K	178.89
337.15 K	179.35
339.15 K	179.81
341.15 K	180.28
343.15 K	180.76
345.15 K	181.24
347.15 K	181.73
349.15 K	182.22
351.15 K	182.71
353.15 K	183.21
